Data from article PMC4774911, “Biochemical Screening of Five Protein Kinases from Plasmodium falciparum against 14,000 Cell-Active Compounds” (PLoS ONE, 2016).
Read-outs that look alike come from different tables or passages of the source.

Experiments:
[1] = molecular target: T1, Plasmodium falciparum calcium-dependent protein kinase 1 (CDPK1) (Plasmodium falciparum, UniProt P62344); test: CDPK1 Kinase-Glo ATP-consumption screen and dose-response; type: biochemical; conditions: hits below 1 uM; read-out: CDPK1 IC50
T1 construct: 6-Histidine (N); made in house
Protocol: Biochemical assays were performed in white 384-well plates (Nunc). Liquid transfers were done manually with 8-channel pipets. Compounds were initially tested in a single-point screen (final concentration 1 μM). […] The catalytic activity of each kinase was considered proportional to ATP consumed, as determined from measurements of residual [ATP] with the luciferase-based reagent Kinase-Glo (Promega) following incubation. Luminescence (proportional to residual [ATP]) was measured on the plate readers FLx800 (BioTek Instruments, Winooski, VT, USA) and MicroBeta^2 (PerkinElmer, Waltham, MA, USA). Incubation times were chosen to ensure near-complete ATP depletion in the absence of inhibition, thus maximizing the difference in signal between inhibited and uninhibited wells.
40 μM Syntide-2 was used as a substrate; BKI-1 [14] was used as a control inhibitor, while reaction mixtures lacking Syntide-2 were included as an additional negative control. Incubation time was 90 minutes. Reactions were terminated by adding excess EGTA (5 mM), which sequesters Ca^2+ and halts calcium-dependent kinase activity.

3D7 PFLDH [2] = test system: 3D7 PFLDH; parameters: method as in F.J. Gamo et al., Nature 2010; conditions: downloaded from ChEMBL ref F.J. Gamo et al., Nature 2010; cited from earlier work
P. falciparum 3D7 cells = conditions: Nature 2010, cited from earlier work
DD2 [3] = test system: DD2; parameters: method as in F.J. Gamo et al., Nature 2010; conditions: P. falciparum Dd2; downloaded from ChEMBL ref F.J. Gamo et al., Nature 2010; cited from earlier work
HepG2 cells = conditions: Nature 2010, cited from earlier work
DD2 [4] = test system: DD2; parameters: method as in F.J. Gamo et al., Nature 2010; conditions: downloaded from ChEMBL, ref F.J. Gamo et al., Nature 2010; cited from earlier work
3D7 PFLDH [5] = test system: 3D7 PFLDH; parameters: method as in F.J. Gamo et al., Nature 2010; concentration or dose not given beside the values; conditions: downloaded from ChEMBL, ref F.J. Gamo et al., Nature 2010; cited from earlier work
[6] = P. falciparum 3D7, downloaded from ChEMBL ref F.J. Gamo et al.
[7] = HepG2 cells, downloaded from ChEMBL ref F.J. Gamo et al.
[8] = 3D7, downloaded from ChEMBL, ref F.J. Gamo et al.
[9] = HepG2, downloaded from ChEMBL, ref F.J. Gamo et al.

T1 sequence (P62344 whole entry): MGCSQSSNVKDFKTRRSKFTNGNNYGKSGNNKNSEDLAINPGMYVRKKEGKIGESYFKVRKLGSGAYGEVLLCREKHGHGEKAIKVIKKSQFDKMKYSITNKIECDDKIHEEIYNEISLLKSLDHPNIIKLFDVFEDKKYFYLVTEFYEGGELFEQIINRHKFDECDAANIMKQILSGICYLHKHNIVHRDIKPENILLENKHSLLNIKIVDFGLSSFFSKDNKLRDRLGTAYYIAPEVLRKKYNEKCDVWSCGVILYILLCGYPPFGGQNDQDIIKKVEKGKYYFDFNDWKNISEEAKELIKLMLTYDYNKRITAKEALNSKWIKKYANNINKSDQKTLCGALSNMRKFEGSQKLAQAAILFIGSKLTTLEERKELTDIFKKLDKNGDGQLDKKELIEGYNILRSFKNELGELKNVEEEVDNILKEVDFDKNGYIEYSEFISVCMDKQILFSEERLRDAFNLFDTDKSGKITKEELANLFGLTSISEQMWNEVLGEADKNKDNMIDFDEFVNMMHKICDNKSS

Compound | IC50 [1] [µM] | PCT_INHIB_3D7_PFLDH (3D7 PFLDH [2]) | PCT_IHB_3D7 (P. falciparum 3D7 cells; [6]) | pXC50_3D7 (P. falciparum 3D7 cells; [6]) | PCT_INHB_DD2 (DD2 [3]) | PCT_INHIB_HEPG2 (HepG2 cells; [7]) | PCT_INHB_DD2 (DD2 [4]) [%] | PCT_INHIB_3D7_PFLDH (3D7 PFLDH [5]) [%] | PCT_IHB_3D7 (P. falciparum 3D7 cells; [8]) [%] | pXC50_3D7 (P. falciparum 3D7 cells; [8]) | PCT_INHIB_HEPG2 (HepG2 cells; [9]) [%]
CN(C)CCOc1ccc(-c2cc(-c3ccnc(N)n3)c(-c3ccc(Cl)c(O)c3)o2)cc1 [TCMDC-141338] | 0.684 | 5 | 100 | 6.01 | 91 | 14 | – | – | – | – | –
Cl.Oc1cc(-c2nc(C3(CNCc4ccc(Cl)cc4)CCCCC3)[nH]c2-c2ccncc2)ccc1Cl [TCMDC-141155] | 0.846 | 2 | 100 | 6.903 | 99 | 35 | – | – | – | – | –
CC(C)(CNCc1ccc(Cl)c(Cl)c1)c1nc(-c2ccc(Cl)c(O)c2)c(-c2ccncc2)[nH]1.Cl [TCMDC-140688] | 0.539 | 0 | 100 | 6.121 | 97 | 43 | – | – | – | – | –
CC(C)(CNC(=O)[C@H]1CCCN1)c1nc(-c2ccc(Cl)c(O)c2)c(-c2ccncc2)[nH]1.Cl [TCMDC-141060] | 0.179 | 0 | 86 | 5.895 | 95 | 0 | – | – | – | – | –
Nc1ncc(-c2cn[nH]c2)cc1-c1nc2ccc(F)cc2[nH]1 [TCMDC-133559] | 0.15 | 0 | 100 | 6.137 | 53 | 38 | – | – | – | – | –
CN(C)CCOc1ccc(-c2cc(-c3ccc(Cl)c(O)c3)c(-c3ccnc(N)n3)o2)cc1 [TCMDC-141332] | 0.168 | 2 | 100 | 5.879 | 95 | 43 | – | – | – | – | –
COc1cccc(CNCC(C)(C)c2nc(-c3ccc(Cl)c(O)c3)c(-c3ccncc3)[nH]2)c1.Cl [TCMDC-140687] | 0.275 | 0 | 100 | 6.159 | 98 | 74 | – | – | – | – | –
CCNC(=O)Nc1ccc(-c2cnc(N)c(-c3nc4ccc(OC)cc4[nH]3)c2)cc1 [TCMDC-135321] | 0.145 | 1 | 100 | 6.302 | 43 | 51 | – | – | – | – | –
CC(C)(CN)c1nc(-c2ccc(Cl)c(O)c2)c(-c2ccnc(N)n2)[nH]1 [TCMDC-141019] | 0.00749 | 0 | 95 | 6.0083 | 95 | 34 | – | – | – | – | –
CC(C)(CNC(=O)[C@H]1CCCCN1)c1nc(-c2ccc(Cl)c(O)c2)c(-c2ccncc2)[nH]1.Cl [TCMDC-141070] | 0.164 | 0 | 98 | 6.139 | 98 | 6 | – | – | – | – | –
CC(C)(CNC(=O)[C@@H]1CCCCN1)c1nc(-c2ccc(Cl)c(O)c2)c(-c2ccncc2)[nH]1.Cl [TCMDC-141079] | 0.192 | 0 | 97 | 6.075 | 96 | 0 | – | – | – | – | –
COc1cccc(Nc2nccc(-c3c(-c4cccc(NC(=O)c5c(F)cccc5F)c4)nn4ccccc34)n2)c1 [TCMDC-135508] | 0.087 | 0 | 98 | 6.749 | 98 | 35 | – | – | – | – | –
CC(C)(CNC(=O)C1CCN(CCOCc2ccccc2)CC1)c1nc(-c2ccc(Cl)c(O)c2)c(-c2ccncc2)[nH]1.Cl [TCMDC-141122] | 0.734 | 0 | 100 | 6.208 | 18 | 11 | – | – | – | – | –
CS(=O)(=O)Cc1ccc(Nc2nccc(-c3c(-c4cccc(NC(=O)c5c(F)cccc5F)c4)nn4ncccc34)n2)cc1 [TCMDC-135681] | 0.011 | 1 | 97 | 6.79 | 93 | 86 | – | – | – | – | –
CC(C)(CNCc1ccc(F)c(F)c1)c1nc(-c2ccnc(N)n2)c(-c2ccc(Cl)c(O)c2)[nH]1.Cl [TCMDC-141163] | 0.469 | 0 | 99 | 6.131 | 79 | 41 | – | – | – | – | –
CCn1c(-c2nc(-c3ccnc(N4CCN(C)CC4)c3)cnc2N)nc2cc(S(C)(=O)=O)ccc21 [TCMDC-134155] | 0.654 | 0 | 100 | 6.089 | 76 | 44 | – | – | – | – | –
CNC(=O)c1ccccc1Nc1nc(Nc2ccc(C(=O)O)cc2)ncc1Cl.Cl [TCMDC-133803] | 0.246 | – | – | – | – | – | 92 | 0 | 92 | 6.022 | 60
Cl.c1ccc(Oc2ccc(Nc3ccnc(Nc4ccc(OCCN5CCCCC5)cc4)n3)cc2)cc1 [TCMDC-138583] | 0.701 | – | – | – | – | – | 66 | 0 | 97 | 6.219 | 23
CN1CCN(Cc2cccc(Nc3nccc(Nc4ccc(Oc5ccccc5)cc4)n3)c2)CC1 [TCMDC-138614] | 0.801 | – | – | – | – | – | 80 | 2 | 97 | 6.529 | 30
Cl.c1ccc(Oc2ccc(Nc3ccnc(Nc4ccc5cn[nH]c5c4)n3)cc2)cc1 [TCMDC-138574] | 0.765 | – | – | – | – | – | 33 | 0 | 94 | 6.135 | 6
CCCN1CCN(CCNC(=O)c2cccc(Nc3nccc(Nc4ccc(Oc5ccccc5)cc4)n3)c2)CC1 [TCMDC-138606] | 0.336 | – | – | – | – | – | 96 | 0 | 99 | 6.622 | 56
CCn1c(-c2nonc2N)nc2c(-c3ccc(CO)o3)ncc(OCCCN)c21.O=C(O)C(F)(F)F [TCMDC-133807] | 0.051 | – | – | – | – | – | 97 | 0 | 93 | 5.866 | 0
O=C(NCCCN1CCCCC1)c1cccc(Nc2nccc(Nc3ccc(Oc4ccccc4)cc3)n2)c1 [TCMDC-138605] | 0.243 | – | – | – | – | – | 12 | 2 | 96 | 6.086 | 47
O=C(NCCCN1CCOCC1)c1cccc(Nc2nccc(Nc3ccc(Oc4ccccc4)cc3)n2)c1 [TCMDC-138604] | 0.18 | – | – | – | – | – | 22 | 0 | 98 | 6.116 | 34
CN1CCN(c2ccc(Nc3ncc(Cl)c(Nc4cccnc4C(N)=O)n3)cc2)CC1.Cl [TCMDC-134164] | 0.012 | – | – | – | – | – | 97 | 0 | 95 | 6.816 | 99
CC(=O)Nc1cccc(Nc2nccc(Nc3ccc(Oc4ccccc4)cc3)n2)c1.Cl [TCMDC-138590] | 0.425 | – | – | – | – | – | 99 | 0 | 100 | 6.128 | 15
O=C(NCCCN1CCCCC1)c1ccc(Nc2nccc(Nc3ccc(Oc4ccccc4)cc3)n2)cc1 [TCMDC-138609] | 0.094 | – | – | – | – | – | 61 | 0 | 100 | 6.204 | 30
Cn1c(Nc2cc(C(C)(C)C)on2)nc2cc(Nc3ccnc(Nc4cccc(CS(C)(=O)=O)c4)n3)ccc21 [TCMDC-141893] | 0.114 | – | – | – | – | – | 94 | 0 | 99 | 6.243 | 63
